Source: patent publication US6806264B2, “Arylphenyl-substituted cyclic ketoenols” (Bayer Aktiengesellschaft, priority 1998, dated 2004)

Test system: peach aphids (Myzus persicae)
Experiment: Myzus test
Assay type: in vivo
Settings: concentration of active compound 0.1 %, infested cabbage leaves (Brassica oleracea) dipped

SMILES | Degree of kill in % after 6 days
Cc1ccc(-c2ccc(Cl)cc2)c(C)c1C1=C(O)C2(CCCOC2)NC1=O (stereo not drawn) [Ex. I-1-a-7] | 98%
Cc1ccc(-c2ccccc2)c(C)c1C1=C(O)C2(CCC(C)CC2)NC1=O (stereo not drawn) [Ex. I-1-a-2] | 95%
COC1CCC2(CC1)NC(=O)C(c1c(C)cc(C)c(-c3ccccc3)c1C)=C2O (stereo not drawn) [Ex. I-1-a-6] | 100%
Cc1ccc(-c2ccc(Cl)cc2)c(C)c1C1=C(O)C2(CCC(C)CC2)NC1=O (stereo not drawn) [Ex. I-1-a-3] | 98%

Test system: caterpillars of the army worm (Spodoptera frugiperda)
Experiment: Spodoptera frugiperda test
Assay type: in vivo
Settings: concentration of active compound 0.1 %, cabbage leaves (Brassica oleracea) dipped

SMILES | Degree of kill in % after 7 days
Cc1ccc(-c2ccc(Cl)cc2)c(C)c1C1=C(O)C2(CCCOC2)NC1=O (stereo not drawn) [Ex. I-1-a-7] | 100%
COC1CCC2(CC1)NC(=O)C(c1c(C)cc(C)c(-c3ccccc3)c1C)=C2O (stereo not drawn) [Ex. I-1-a-6] | 100%
Cc1ccc(-c2ccc(Cl)cc2)c(C)c1C1=C(O)C2(CCC(C)CC2)NC1=O (stereo not drawn) [Ex. I-1-a-3] | 100%
COC1CCC2(CC1)NC(=O)C(c1c(C)cc(C)c(-c3ccc(Cl)cc3)c1C)=C2O (stereo not drawn) [Ex. I-1-a-5] | 100%

Test system: greenhouse red spidermite (Tetranychus urticae)
Experiment: Tetranychus test (OP-resistant/dip treatment)
Assay type: in vivo
Settings: concentration of active compound 0.1 %, infested bean plants (Phaseolus vulgaris) dipped, OP-resistant
Experimental: After the desired period of time, the effect in % is determined.

SMILES | Degree of kill in % after 7 days
Cc1ccc(-c2ccc(Cl)cc2)c(C)c1C1=C(O)C2(CCC(C)CC2)NC1=O (stereo not drawn) [Ex. I-1-a-3] | 100%

Test system: not given
Experiment: not given
Settings: not given

SMILES | melting point
Cc1ccc(-c2ccc(Cl)cc2)c(C)c1C1=C(O)C2(CCCOC2)NC1=O (stereo not drawn) [Ex. I-1-a-7] | > 250 °C
Cc1ccc(-c2ccccc2)c(C)c1C1=C(O)C2(CCC(C)CC2)NC1=O (stereo not drawn) [Ex. I-1-a-2] | > 240 °C
Cc1ccc(-c2ccc(Cl)cc2)c(C)c1C1=C(O)C2(CCC(C)CC2)NC1=O (stereo not drawn) [Ex. I-1-a-3] | > 240 °C
COC1CCC2(CC1)NC(=O)C(c1c(C)cc(C)c(-c3ccc(Cl)cc3)c1C)=C2O (stereo not drawn) [Ex. I-1-a-5] | > 240 °C

Next, values leading:

melting point | SMILES
> 240 °C | COC1CCC2(CC1)NC(=O)C(c1c(C)cc(C)c(-c3ccccc3)c1C)=C2O (stereo not drawn) [Ex. I-1-a-6]
134 °C | COc1cc(Cl)c(C2=C(O)C3(CCC(OC)CC3)NC2=O)cc1-c1ccccc1 (stereo not drawn) [Ex. I-1-a-13]

Test system: larvae of the mustard beetle (Phaedon cochileariae)
Experiment: Phaedon larvae test
Settings: concentration of active compound 0.1 %, cabbage leaves (Brassica oleracea) dipped

SMILES | Degree of kill in % after 7 days
Cc1ccc(-c2ccc(Cl)cc2)c(C)c1C1=C(O)C2(CCCOC2)NC1=O (stereo not drawn) [Ex. I-1-a-7] | 100%
Cc1ccc(-c2ccccc2)c(C)c1C1=C(O)C2(CCC(C)CC2)NC1=O (stereo not drawn) [Ex. I-1-a-2] | 100%
COC1CCC2(CC1)NC(=O)C(c1c(C)cc(C)c(-c3ccccc3)c1C)=C2O (stereo not drawn) [Ex. I-1-a-6] | 100%
Cc1ccc(-c2ccc(Cl)cc2)c(C)c1C1=C(O)C2(CCC(C)CC2)NC1=O (stereo not drawn) [Ex. I-1-a-3] | 100%
COC1CCC2(CC1)NC(=O)C(c1c(C)cc(C)c(-c3ccc(Cl)cc3)c1C)=C2O (stereo not drawn) [Ex. I-1-a-5] | 100%
COc1cc(Cl)c(C2=C(O)C3(CCC(OC)CC3)NC2=O)cc1-c1ccccc1 (stereo not drawn) [Ex. I-1-a-13] | 100%
